Reference: US8735584B2 (Merck Patent GmbH, priority 2008, dated 2014)

Tests used:
Assay type in all cases: biochemical
GSK3b = biological target: T1, GSK3b (Homo sapiens, UniProt P49841); experiment: Desktop Profiler kinase panel, GSK3b; conditions: 10 micromolar concentration of the compound; read-out: Percent Inhibition GSK3b
T1 construct: purchased Caliper Life Sciences
Experimental: (§1) The Aurora assays described here are performed on two Caliper Life Sciences systems: the LC3000 and the Desktop Profiler. These provide data on enzyme activity via measurement of the relative amounts of phosphorylated or unphosphorylated fluorescently labelled substrate peptide at the end of an enzymatic reaction. These different states of peptide are resolved by applying a potential difference across the sample. The presence of the charged phosphate group on the product (as opposed to the substrate) causes a different peptide mobility between the two peptides. This is visualized by excitation of the fluorescent label on the substrate and product peptides and represented as peaks within the analysis software.
(§2) The Desktop Profiler utilizes the same principle as the LC3000 for calculating percentage conversion of a substrate to product. Caliper Life Sciences provides proprietary flash frozen pre-made 384 well plates containing selected kinases. Each column in the 384 well plate contains a particular selected kinase. A second plate, the ‘substrate plate’ contains a mix of fluorescently labeled peptide substrate and ATP. These are arranged in columns so that transfer for substrate plate to enzyme plate provides the correct enzyme with the correct substrate/ATP concentration. Compounds are added to a thawed enzyme plate in the desired format, in single concentrations. Reactions are initiated by transfer of the substrate/ATP mix from the substrate plate. The enzyme plate is incubated for 90 mins at 25 C. The reaction is stopped by addition of 70 ul of Stop Buffer (100 mM HEPES pH 7.5, 0.015% Brij-35, 10 mM EDTA (Sigma, E7889)).
(§3) Reading of the plate in the Profiler is identical to the LC3000, and the ratio between substrate and product peaks provides the activity of the enzyme in that well. This is best represented by a plate heat map which colors each well by percent inhibition as compared to positive and negative controls (no inhibitors and no ATP respectively).
(§4) In the following Tables 3a-4-b, which show the results of the desktop profiler measurements, “+” means 50-70% inhibition, “++” means 70-90% inhibition, and “+++” means >90% inhibition. The enzymes tested for profiling were ABL, AKT1, AKT2, AurA, CHK1, CHK2, CK1d, Erk1, Erk2, FYN, GSK3b, INSR, LCK, LYN, MAPKAPK2, MET, MSK1, p38a, PKA, PKCz, PKD2, PRAK, RSK1 and SRC.

ABL = biological target: T2, ABL (Homo sapiens, UniProt P00519); experiment: Desktop Profiler kinase panel, ABL; conditions: for inhibition at 10 µM: 10 micromolar concentration of the compound, read-out: Percent Inhibition ABL
T2 construct: purchased Caliper Life Sciences
Experimental: as §1, §2, §3, §4

CK1d = biological target: T3, CK1d (Homo sapiens, UniProt P48730); experiment: Desktop Profiler kinase panel, CK1d; conditions: for inhibition at 10 µM: 10 micromolar concentration of the compound, read-out: Percent Inhibition CK1d
T3 construct: purchased Caliper Life Sciences
Experimental: as §1, §2, §3, §4

PKA = biological target: T4, PKA (Homo sapiens, UniProt P17612); experiment: Desktop Profiler kinase panel, PKA; conditions: 10 micromolar concentration of the compound; read-out: Percent Inhibition PKA
T4 construct: purchased Caliper Life Sciences
Experimental: as §1, §2, §3, §4

LYN = biological target: T5, LYN (Homo sapiens, UniProt P07948); experiment: Desktop Profiler kinase panel, LYN; conditions: for inhibition at 10 µM: 10 micromolar concentration of the compound, read-out: Percent Inhibition LYN
T5 construct: purchased Caliper Life Sciences
Experimental: as §1, §2, §3, §4

SRC = biological target: T6, SRC (Homo sapiens, UniProt P12931); experiment: Desktop Profiler kinase panel, SRC; conditions: for inhibition at 10 µM: 10 micromolar concentration of the compound, read-out: Percent Inhibition SRC
T6 construct: purchased Caliper Life Sciences
Experimental: as §1, §2, §3, §4

AurA = biological target: T7, AurA (Homo sapiens, UniProt O14965); experiment: Desktop Profiler kinase panel, AurA; conditions: 10 micromolar concentration of the compound; read-out: Percent Inhibition AurA
T7 construct: purchased Caliper Life Sciences
T7 sequence (O14965 1-403): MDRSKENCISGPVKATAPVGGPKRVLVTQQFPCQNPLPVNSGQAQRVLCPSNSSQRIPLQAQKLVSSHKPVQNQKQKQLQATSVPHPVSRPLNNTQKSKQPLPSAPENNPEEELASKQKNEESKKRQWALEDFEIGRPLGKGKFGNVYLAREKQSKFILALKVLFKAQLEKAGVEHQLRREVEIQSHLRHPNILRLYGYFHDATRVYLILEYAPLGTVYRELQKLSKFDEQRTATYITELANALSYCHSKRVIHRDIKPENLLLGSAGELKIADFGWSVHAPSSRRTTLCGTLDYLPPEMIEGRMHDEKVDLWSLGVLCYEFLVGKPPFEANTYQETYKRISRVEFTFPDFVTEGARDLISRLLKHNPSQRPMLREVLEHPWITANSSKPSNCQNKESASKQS
Experimental: as §1, §2, §3, §4

p38a = biological target: T8, p38a (Homo sapiens, UniProt Q16539); experiment: Desktop Profiler kinase panel, p38a; conditions: 1 micromolar concentration of the compound
T8 construct: purchased Caliper Life Sciences
Experimental: as §1
The Desktop Profiler utilizes the same principle as the LC3000 for calculating percentage conversion of a substrate to product. Caliper Life Sciences provides proprietary flash frozen pre-made 384 well plates containing selected kinases. Each column in the 384 well plate contains a particular selected kinase. A second plate, the ‘substrate plate’ contains a mix of fluorescently labeled peptide substrate and ATP. […]
Reading of the plate in the Profiler is identical to the LC3000, and the ratio between substrate and product peaks provides the activity of the enzyme in that well. […]

AKT2 = biological target: T9, AKT2 (Homo sapiens, UniProt P31751); experiment: Desktop Profiler kinase panel, AKT2; conditions: 10 micromolar concentration of the compound; read-out: Percent Inhibition AKT2
T9 construct: purchased Caliper Life Sciences
Experimental: as §1, §2, §3, §4

CHK2 = biological target: T10, CHK2 (Homo sapiens, UniProt O96017); experiment: Desktop Profiler kinase panel, CHK2; conditions: 10 micromolar concentration of the compound; read-out: Percent Inhibition CHK2
T10 construct: purchased Caliper Life Sciences
Experimental: as §1, §2, §3, §4

FYN = biological target: T11, FYN (Homo sapiens, UniProt P06241); experiment: Desktop Profiler kinase panel, FYN; conditions: for inhibition at 10 µM: 10 micromolar concentration of the compound, read-out: Percent Inhibition FYN
T11 construct: purchased Caliper Life Sciences
Experimental: as §1, §2, §3, §4

PKD2 = biological target: T12, PKD2 (Homo sapiens, UniProt Q9BZL6); experiment: Desktop Profiler kinase panel, PKD2; conditions: 10 micromolar concentration of the compound; read-out: Percent Inhibition PKD2
T12 construct: purchased Caliper Life Sciences
T12 sequence (Q9BZL6 1-878): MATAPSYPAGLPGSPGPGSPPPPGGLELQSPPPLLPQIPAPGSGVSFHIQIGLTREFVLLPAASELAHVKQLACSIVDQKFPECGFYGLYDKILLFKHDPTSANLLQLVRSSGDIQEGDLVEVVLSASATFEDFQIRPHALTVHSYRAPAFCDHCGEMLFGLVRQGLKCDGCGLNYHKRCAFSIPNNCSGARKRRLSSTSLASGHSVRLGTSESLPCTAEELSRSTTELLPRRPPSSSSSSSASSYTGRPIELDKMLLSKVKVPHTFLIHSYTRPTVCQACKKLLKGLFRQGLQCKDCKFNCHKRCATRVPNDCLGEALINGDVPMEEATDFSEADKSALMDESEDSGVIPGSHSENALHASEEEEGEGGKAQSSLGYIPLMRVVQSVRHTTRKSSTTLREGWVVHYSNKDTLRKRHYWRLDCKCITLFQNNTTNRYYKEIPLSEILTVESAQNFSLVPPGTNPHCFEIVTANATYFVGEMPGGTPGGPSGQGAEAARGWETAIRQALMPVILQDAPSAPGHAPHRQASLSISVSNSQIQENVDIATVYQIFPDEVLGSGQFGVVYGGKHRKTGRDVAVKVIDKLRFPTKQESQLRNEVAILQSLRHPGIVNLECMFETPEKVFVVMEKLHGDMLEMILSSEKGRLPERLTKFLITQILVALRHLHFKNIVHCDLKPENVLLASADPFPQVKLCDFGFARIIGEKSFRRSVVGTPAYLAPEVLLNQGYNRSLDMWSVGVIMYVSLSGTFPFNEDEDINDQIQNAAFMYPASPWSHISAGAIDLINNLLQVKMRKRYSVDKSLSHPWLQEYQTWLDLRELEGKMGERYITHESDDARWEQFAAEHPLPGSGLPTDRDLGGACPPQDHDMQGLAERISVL
Experimental: as §1, §2, §3, §4

RSK1 = biological target: T13, RSK1 (Homo sapiens, UniProt Q15418); experiment: Desktop Profiler kinase panel, RSK1; conditions: 10 micromolar concentration of the compound; read-out: Percent Inhibition RSK1
T13 construct: purchased Caliper Life Sciences
Experimental: as §1, §2, §3, §4

[1] = 1 micromolar concentration of the compound

T3 sequence (P48730 whole entry): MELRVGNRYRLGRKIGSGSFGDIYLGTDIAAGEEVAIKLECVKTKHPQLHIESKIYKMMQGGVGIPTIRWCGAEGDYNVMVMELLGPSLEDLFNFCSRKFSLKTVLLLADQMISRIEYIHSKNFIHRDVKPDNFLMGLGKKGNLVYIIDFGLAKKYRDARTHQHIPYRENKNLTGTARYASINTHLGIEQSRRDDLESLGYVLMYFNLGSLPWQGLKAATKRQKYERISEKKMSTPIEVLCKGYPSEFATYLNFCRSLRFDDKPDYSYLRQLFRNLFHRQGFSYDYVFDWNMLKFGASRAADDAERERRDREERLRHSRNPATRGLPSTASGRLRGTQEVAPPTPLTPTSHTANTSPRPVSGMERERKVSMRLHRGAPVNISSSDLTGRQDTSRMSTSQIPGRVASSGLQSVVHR
T5 sequence (P07948 whole entry, species assumed): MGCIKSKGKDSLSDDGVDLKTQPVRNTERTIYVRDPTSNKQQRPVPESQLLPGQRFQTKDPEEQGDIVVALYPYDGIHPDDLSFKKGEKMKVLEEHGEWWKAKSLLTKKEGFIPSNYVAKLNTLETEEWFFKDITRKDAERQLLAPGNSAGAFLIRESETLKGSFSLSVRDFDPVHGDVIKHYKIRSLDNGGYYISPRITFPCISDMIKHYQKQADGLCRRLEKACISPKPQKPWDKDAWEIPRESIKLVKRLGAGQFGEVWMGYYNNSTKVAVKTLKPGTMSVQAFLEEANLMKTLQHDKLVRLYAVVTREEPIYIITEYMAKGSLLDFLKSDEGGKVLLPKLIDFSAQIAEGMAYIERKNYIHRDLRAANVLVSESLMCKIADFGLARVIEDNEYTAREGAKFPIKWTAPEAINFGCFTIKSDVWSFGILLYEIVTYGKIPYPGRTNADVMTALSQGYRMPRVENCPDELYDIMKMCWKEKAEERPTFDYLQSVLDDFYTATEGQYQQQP
T2 sequence (P00519 whole entry, species assumed): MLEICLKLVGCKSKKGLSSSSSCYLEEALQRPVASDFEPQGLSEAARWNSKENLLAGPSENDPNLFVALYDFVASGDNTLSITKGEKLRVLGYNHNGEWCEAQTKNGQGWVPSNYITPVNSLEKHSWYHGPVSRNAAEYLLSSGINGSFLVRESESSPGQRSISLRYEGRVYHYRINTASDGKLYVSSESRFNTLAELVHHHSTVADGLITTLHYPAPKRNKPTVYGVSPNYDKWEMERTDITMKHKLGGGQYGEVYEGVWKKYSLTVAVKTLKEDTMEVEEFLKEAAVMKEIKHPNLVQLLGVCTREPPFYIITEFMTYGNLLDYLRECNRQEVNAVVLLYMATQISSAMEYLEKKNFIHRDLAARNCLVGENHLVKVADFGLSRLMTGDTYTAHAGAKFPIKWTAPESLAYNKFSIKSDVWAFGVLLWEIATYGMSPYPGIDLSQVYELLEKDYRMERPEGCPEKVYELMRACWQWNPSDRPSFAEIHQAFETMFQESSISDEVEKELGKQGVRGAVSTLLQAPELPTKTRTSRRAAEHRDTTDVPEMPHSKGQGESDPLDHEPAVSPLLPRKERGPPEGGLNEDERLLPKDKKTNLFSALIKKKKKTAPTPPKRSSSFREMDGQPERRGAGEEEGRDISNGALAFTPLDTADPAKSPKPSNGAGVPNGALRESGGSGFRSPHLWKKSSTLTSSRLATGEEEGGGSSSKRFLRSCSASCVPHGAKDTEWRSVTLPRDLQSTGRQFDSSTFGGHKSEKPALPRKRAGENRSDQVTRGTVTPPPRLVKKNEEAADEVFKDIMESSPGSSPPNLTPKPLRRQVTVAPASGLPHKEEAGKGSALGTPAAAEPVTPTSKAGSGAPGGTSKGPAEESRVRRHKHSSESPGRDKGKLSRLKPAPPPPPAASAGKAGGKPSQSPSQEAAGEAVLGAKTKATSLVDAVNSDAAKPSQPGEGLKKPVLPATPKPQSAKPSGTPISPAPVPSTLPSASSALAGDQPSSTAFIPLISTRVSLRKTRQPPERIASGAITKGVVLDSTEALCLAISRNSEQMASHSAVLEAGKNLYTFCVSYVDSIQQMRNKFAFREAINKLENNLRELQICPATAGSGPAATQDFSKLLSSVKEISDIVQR
T6 sequence (P12931 whole entry, species assumed): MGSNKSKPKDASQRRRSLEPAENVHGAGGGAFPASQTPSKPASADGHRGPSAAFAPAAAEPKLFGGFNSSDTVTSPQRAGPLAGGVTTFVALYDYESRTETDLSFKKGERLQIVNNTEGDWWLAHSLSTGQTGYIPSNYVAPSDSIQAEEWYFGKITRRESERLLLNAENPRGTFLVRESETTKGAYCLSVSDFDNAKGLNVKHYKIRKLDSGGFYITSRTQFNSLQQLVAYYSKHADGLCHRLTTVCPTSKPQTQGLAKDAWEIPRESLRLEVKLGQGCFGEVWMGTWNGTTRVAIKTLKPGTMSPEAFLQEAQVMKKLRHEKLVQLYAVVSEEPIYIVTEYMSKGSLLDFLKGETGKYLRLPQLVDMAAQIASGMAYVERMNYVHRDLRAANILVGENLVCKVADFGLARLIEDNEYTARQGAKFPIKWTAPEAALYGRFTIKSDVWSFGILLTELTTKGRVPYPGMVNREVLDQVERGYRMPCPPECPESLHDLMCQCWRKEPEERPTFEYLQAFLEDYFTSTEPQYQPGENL
T11 sequence (P06241 whole entry, species assumed): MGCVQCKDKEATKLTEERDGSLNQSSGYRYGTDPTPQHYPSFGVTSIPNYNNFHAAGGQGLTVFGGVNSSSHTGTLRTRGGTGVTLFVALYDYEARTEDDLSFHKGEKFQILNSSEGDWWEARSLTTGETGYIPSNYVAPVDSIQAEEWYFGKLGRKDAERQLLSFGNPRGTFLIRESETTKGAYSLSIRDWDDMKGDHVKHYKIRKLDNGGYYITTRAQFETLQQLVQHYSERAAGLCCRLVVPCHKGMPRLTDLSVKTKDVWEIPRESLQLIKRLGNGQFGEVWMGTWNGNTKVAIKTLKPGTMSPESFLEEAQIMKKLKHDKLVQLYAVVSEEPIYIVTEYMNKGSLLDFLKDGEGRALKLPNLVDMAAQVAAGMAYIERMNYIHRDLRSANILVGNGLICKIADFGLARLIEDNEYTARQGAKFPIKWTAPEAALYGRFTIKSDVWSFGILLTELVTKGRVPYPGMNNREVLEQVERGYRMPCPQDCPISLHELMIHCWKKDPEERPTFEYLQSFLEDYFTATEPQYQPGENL
T1 sequence (P49841 whole entry, species assumed): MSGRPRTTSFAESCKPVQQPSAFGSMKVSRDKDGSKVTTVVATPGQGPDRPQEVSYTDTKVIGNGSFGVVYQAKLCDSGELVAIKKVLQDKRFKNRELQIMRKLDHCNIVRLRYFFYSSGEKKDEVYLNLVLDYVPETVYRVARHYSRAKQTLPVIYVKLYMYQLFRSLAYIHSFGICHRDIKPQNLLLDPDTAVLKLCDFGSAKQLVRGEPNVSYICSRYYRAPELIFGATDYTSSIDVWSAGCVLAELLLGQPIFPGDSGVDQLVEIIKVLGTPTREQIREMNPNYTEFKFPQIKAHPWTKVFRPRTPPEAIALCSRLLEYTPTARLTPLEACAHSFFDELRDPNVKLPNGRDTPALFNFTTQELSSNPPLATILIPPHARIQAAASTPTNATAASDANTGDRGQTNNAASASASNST
T10 sequence (O96017 whole entry, species assumed): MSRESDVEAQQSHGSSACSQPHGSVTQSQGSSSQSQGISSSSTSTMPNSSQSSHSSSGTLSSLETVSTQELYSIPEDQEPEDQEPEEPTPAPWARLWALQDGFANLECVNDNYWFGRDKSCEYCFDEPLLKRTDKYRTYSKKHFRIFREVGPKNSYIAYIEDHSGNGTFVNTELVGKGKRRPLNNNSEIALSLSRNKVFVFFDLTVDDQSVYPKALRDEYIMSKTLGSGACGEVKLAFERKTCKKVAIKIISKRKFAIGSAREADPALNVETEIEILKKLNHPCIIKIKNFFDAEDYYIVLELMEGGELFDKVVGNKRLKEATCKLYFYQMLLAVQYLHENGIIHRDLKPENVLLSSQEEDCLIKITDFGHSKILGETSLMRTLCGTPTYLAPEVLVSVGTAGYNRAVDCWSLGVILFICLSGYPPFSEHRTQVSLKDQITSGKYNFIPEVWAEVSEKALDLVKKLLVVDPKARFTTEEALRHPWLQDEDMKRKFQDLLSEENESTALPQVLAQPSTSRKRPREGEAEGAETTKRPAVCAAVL
T9 sequence (P31751 whole entry, species assumed): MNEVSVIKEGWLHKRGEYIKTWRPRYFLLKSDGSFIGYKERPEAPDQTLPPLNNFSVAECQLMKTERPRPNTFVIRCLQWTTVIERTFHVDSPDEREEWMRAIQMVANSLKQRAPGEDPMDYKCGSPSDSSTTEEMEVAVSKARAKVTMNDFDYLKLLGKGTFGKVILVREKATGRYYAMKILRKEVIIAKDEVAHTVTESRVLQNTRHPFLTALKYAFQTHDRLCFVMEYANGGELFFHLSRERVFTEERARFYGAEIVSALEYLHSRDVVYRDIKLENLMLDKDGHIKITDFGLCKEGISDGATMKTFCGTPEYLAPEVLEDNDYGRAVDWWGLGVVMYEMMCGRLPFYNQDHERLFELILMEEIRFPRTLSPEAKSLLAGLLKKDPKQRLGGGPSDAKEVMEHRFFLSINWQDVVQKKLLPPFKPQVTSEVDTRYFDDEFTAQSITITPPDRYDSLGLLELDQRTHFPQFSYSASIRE
T8 sequence (Q16539 whole entry): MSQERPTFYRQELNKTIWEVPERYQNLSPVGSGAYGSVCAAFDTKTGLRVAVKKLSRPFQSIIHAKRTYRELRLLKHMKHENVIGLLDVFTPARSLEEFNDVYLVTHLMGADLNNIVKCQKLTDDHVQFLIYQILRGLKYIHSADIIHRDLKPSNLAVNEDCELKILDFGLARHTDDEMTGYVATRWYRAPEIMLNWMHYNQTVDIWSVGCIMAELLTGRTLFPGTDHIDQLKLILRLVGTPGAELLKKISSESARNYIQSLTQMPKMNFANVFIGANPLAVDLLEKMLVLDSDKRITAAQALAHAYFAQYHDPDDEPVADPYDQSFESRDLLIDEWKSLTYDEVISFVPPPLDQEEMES

Row | Structure (SMILES) | inhibition at 10 µM (GSK3b) [%] | inhibition at 10 µM (ABL) [%] | inhibition at 10 µM (CK1d) [%] | inhibition at 10 µM (LYN) [%] | inhibition at 10 µM (SRC) [%] | inhibition at 10 µM (AurA) [%] | inhibition at 10 µM (FYN) [%] | inhibition at 10 µM (PKD2) [%] | further results
1 | Clc1ccc2c(Nc3cccc(Br)c3)nc3ncccc3c2c1 [Example 59, (3-Bromo-phenyl)-(9-chloro-benzo[c][1,8]naphthyridin-6-yl)-amine] | 50 to 70 | 50 to 70 |  |  |  |  |  |  | 
2 | O=c1[nH]c2nccc(Cl)c2c2ccccc12 [Example 83, 1-Chloro-5H-benzo[c][1,8]naphthyridin-6-one] |  |  | 50 to 70 |  |  |  |  |  | inhibition at 10 µM (PKA): 50 to 70%
3 | O=c1[nH]c2nccc(NCc3ccccc3)c2c2ccccc12 [Example 96, 1-Benzylamino-5H-benzo[c][1,8]naphthyridin-6-one] | 50 to 70 | 70 to 90 | 50 to 70 | 70 to 90 | 50 to 70 | 70 to 90 | 70 to 90 | 50 to 70 | inhibition at 1 µM (LYN; [1]): 70 to 90%; inhibition at 1 µM (SRC; [1]): 50 to 70%; inhibition at 1 µM (CK1d; [1]): 50 to 70%; inhibition at 1 µM (p38a): 50 to 70%; inhibition at 10 µM (AKT2): 50 to 70%; inhibition at 10 µM (CHK2): 50 to 70%; inhibition at 1 µM (FYN; [1]): 70 to 90%; inhibition at 1 µM (ABL; [1]): 70 to 90%
4 | COc1cccc(CNc2ccnc3[nH]c(=O)c4ccccc4c23)c1 [Example 98, 1-(3-Methoxy-benzylamino)-5H-benzo[c][1,8]naphthyridin-6-one] |  |  |  | 50 to 70 |  | 50 to 70 | 50 to 70 | 50 to 70 | 
5 | Clc1nc2nccc(NCc3ccccc3)c2c2ccccc12 [Example 103, Benzyl-(6-chloro-benzo[c][1,8]naphthyridin-1-yl)-amine] |  | 70 to 90 |  | 70 to 90 | 70 to 90 |  | 70 to 90 |  | inhibition at 10 µM (RSK1): 50 to 70%
